The source of these data is ChEMBL document CHEMBL1201862, “PubChem BioAssay data set” (2004).

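A five-concentration, 48-hour dose response in 96-well plates underlies each endpoint, interpolated linearly between surrounding concentrations. GI50 = concentration required for 50% inhibition of growth.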 Activity calls are given as the source filed them. No stated cut-off is given here; in the data, active = GI50 up to about 1.1 µM and inactive = higher.

Test systems include HT-29; NCI/ADR-RES; SK-MEL-5; NCI-H460; SF-539; SF-268; HOP-92; NCI-H226; PC-3; K562; MCF7; TK-10; Hs-578T; UACC-62; KM12; OVCAR-8; NCI-H522; DU-145; RXF 393.
Common to all, as to test: DTP human tumour cell line panel, 48 h

Take `Clc1ccc(-c2cc(-c3nc4ccccc4[nH]3)no2)cc1`: the GI50 in the test with HT-29 was 18.2 µM (inactive); with NCI/ADR-RES it was 23.6 µM (inactive); in the test with SK-MEL-5, 17.7 µM (inactive); in the test with NCI-H460, 16.9 µM (inactive); in the test on SF-539, 23.9 µM (inactive); with SF-268, 21.3 µM (inactive). Also, the GI50 in the test on HOP-92 is 33.7 µM (inactive); in the test on NCI-H226, 27.4 µM (inactive); with PC-3, 23.3 µM (inactive); with K562 it was 19.8 µM (inactive); with MCF7, 15 µM (inactive); in the test with TK-10, 21.9 µM (inactive). For the same compound, the GI50 in the test with Hs-578T is 29.6 µM (inactive); in the test with UACC-62, 14.6 µM (inactive); in the test on KM12, 20.8 µM (inactive); with OVCAR-8, 33.8 µM (inactive); in the test with NCI-H522, 19.2 µM (inactive); in the test on DU-145 it was 11.4 µM (inactive).

Regarding `C=CCN1C[C@@H](C)N([C@@H](c2ccccc2)c2ccc(C(=O)N(CC)CC)cc2)C[C@@H]1C`, the GI50 with HT-29 was > 100 µM (inactive); in the test on NCI/ADR-RES it was > 100 µM (inactive); with SK-MEL-5 it was > 100 µM (inactive); with SF-539, > 100 µM (inactive); with SF-268, > 100 µM (inactive); in the test on HOP-92, 8.43 µM (inactive). In addition, the GI50 in the test on NCI-H226 is 81.7 µM (inactive); in the test with PC-3, > 100 µM (inactive); with MCF7, > 100 µM (inactive); with Hs-578T, > 100 µM (inactive); in the test with UACC-62 it was > 100 µM (inactive); with KM12 it was > 100 µM (inactive). Besides, the GI50 in the test with OVCAR-8, in the test with NCI-H522 and with DU-145 was > 100 µM (inactive) in each case.

On to `CNC(=O)CCCNC(=O)CCCC(=O)OC`, for which the GI50 in the test with HT-29, with NCI/ADR-RES, in the test on SK-MEL-5, in the test on NCI-H460, in the test on SF-539 and in the test with SF-268 was > 100 µM (inactive) each time. For the same compound, the GI50 with HOP-92, in the test on NCI-H226, with PC-3, in the test on K562, in the test with MCF7 and in the test with TK-10 was > 100 µM (inactive) in each case. In addition, the GI50 with Hs-578T, in the test with UACC-62, with KM12, in the test with OVCAR-8, in the test on NCI-H522 and in the test on DU-145 was > 100 µM (inactive) each time.

For the compound `CNC(=S)c1nnsc1N`, the GI50 with NCI/ADR-RES is > 100 µM (inactive); with SK-MEL-5, 14 µM (inactive); in the test with NCI-H460, 0.71 µM (active); in the test on SF-539, > 100 µM (inactive); in the test with SF-268, > 100 µM (inactive); in the test with RXF 393, > 100 µM (inactive). Besides, the GI50 was > 100 µM (inactive) in the test on NCI-H226; 9.93 µM (inactive) in the test on PC-3; 21.7 µM (inactive) with K562; 0.918 µM (active) in the test on MCF7; > 100 µM (inactive) with TK-10; > 100 µM (inactive) in the test with Hs-578T. For the same compound, the GI50 in the test on UACC-62 is > 100 µM (inactive); in the test with KM12, 11.6 µM (inactive); in the test on OVCAR-8 it was > 100 µM (inactive); in the test with NCI-H522, 9.14 µM (inactive); with DU-145, > 100 µM (inactive).

In the case of `O=C(/C=C/c1ccccc1)C[C@@H](O)C[C@@H]1CC=CC(=O)O1`, the GI50 is 5.13 µM (inactive) in the test with HT-29; 20.5 µM (inactive) in the test on NCI/ADR-RES; 12.4 µM (inactive) in the test with SK-MEL-5; 16.3 µM (inactive) in the test on NCI-H460; 3.57 µM (inactive) in the test with SF-539; 10.1 µM (inactive) in the test on SF-268. Moreover, the GI50 with HOP-92 is 3.88 µM (inactive); with NCI-H226 it was > 100 µM (inactive); in the test on PC-3, 16.3 µM (inactive); in the test on K562, 2.33 µM (inactive); in the test with MCF7, 3.94 µM (inactive); in the test with TK-10, 14.9 µM (inactive). The GI50 in the test on Hs-578T is > 33.4 µM (inactive); in the test on UACC-62, 8.97 µM (inactive); in the test on KM12, 4.67 µM (inactive); with OVCAR-8 it was 3.32 µM (inactive); with NCI-H522 it was 2.64 µM (inactive); in the test on DU-145 it was 17.2 µM (inactive).

Take `CN(C)CCNc1c([N+](=O)[O-])sc2ccc(Cl)cc12`: the GI50 in the test with HT-29 is 5.89 µM (inactive); in the test with NCI/ADR-RES, 11.1 µM (inactive); in the test on SK-MEL-5, 26.2 µM (inactive); in the test with NCI-H460 it was 5.38 µM (inactive); in the test on SF-539 it was 14 µM (inactive); with SF-268, 18.3 µM (inactive). Further, the GI50 with RXF 393 was 19.1 µM (inactive); in the test with NCI-H226, 15.8 µM (inactive); in the test on PC-3, 13.4 µM (inactive); in the test on K562, 7.52 µM (inactive); in the test with MCF7 it was 7.36 µM (inactive); with TK-10, 91 µM (inactive). Also, the GI50 is 21.3 µM (inactive) in the test with Hs-578T; 14 µM (inactive) in the test with UACC-62; > 100 µM (inactive) with KM12; 17.3 µM (inactive) in the test on OVCAR-8; 10.8 µM (inactive) with NCI-H522; 80.4 µM (inactive) in the test on DU-145.

`O=C(/C=C/c1ccccc1)CCc1c(O)c2ccccc2oc1=O`: the GI50 is > 100 µM (inactive) with HT-29; > 100 µM (inactive) with NCI/ADR-RES; 80.5 µM (inactive) with SK-MEL-5; 87.9 µM (inactive) with NCI-H460; > 100 µM (inactive) in the test with SF-539; > 100 µM (inactive) in the test on SF-268. Moreover, the GI50 is 18 µM (inactive) with HOP-92; > 100 µM (inactive) in the test with NCI-H226; 43.9 µM (inactive) in the test with PC-3; 49.4 µM (inactive) with K562; 60.4 µM (inactive) in the test on MCF7; > 100 µM (inactive) with Hs-578T. Also, the GI50 is 71 µM (inactive) in the test with UACC-62; 40.8 µM (inactive) in the test with KM12; > 100 µM (inactive) in the test with OVCAR-8; 74.3 µM (inactive) with NCI-H522; > 100 µM (inactive) in the test with DU-145.

In the case of `Cc1ccc2c(=O)cc(Cc3cccs3)[nH]c2n1`, the GI50 in the test with HT-29, in the test on NCI/ADR-RES, with SK-MEL-5, in the test with SF-268, in the test on RXF 393 and in the test on NCI-H226 was > 100 µM (inactive) throughout. For the same compound, the GI50 in the test on PC-3, in the test on K562, in the test on MCF7, with TK-10, in the test on Hs-578T and in the test with UACC-62 was > 100 µM (inactive) each time. Besides, the GI50 in the test with KM12, in the test on OVCAR-8, in the test with NCI-H522 and with DU-145 was > 100 µM (inactive) each time.

Regarding `S=C(c1c[nH]c2ccccc12)N1CCOCC1`, the GI50 with HT-29 was > 100 µM (inactive); with NCI/ADR-RES, > 100 µM (inactive); with SK-MEL-5, > 100 µM (inactive); in the test with NCI-H460 it was > 100 µM (inactive); in the test with SF-539, > 100 µM (inactive); in the test with SF-268 it was 14.1 µM (inactive). The GI50 with RXF 393 was > 100 µM (inactive); in the test with NCI-H226, 24.6 µM (inactive); in the test with PC-3 it was > 100 µM (inactive); in the test on K562 it was > 100 µM (inactive); in the test with MCF7, > 100 µM (inactive); with TK-10, > 100 µM (inactive). The GI50 in the test on Hs-578T was 22.3 µM (inactive); in the test on UACC-62 it was > 100 µM (inactive); in the test on KM12 it was > 100 µM (inactive); in the test on OVCAR-8, > 100 µM (inactive); in the test on DU-145, > 100 µM (inactive).

On to `C[n+]1c(/C=C/c2ccc(/C=N/NC(=O)c3ccc(C(=O)N/N=C/c4ccc(/C=C/c5cn6ccccc6[n+]5C)cc4)cc3)cc2)cn2ccccc21`, for which the GI50 in the test with HT-29 was > 100 µM (inactive); in the test on NCI/ADR-RES it was > 100 µM (inactive); in the test with SK-MEL-5, 1.89 µM (inactive); in the test on NCI-H460 it was > 100 µM (inactive); in the test on SF-539, > 100 µM (inactive); with SF-268 it was > 100 µM (inactive). The GI50 in the test with HOP-92, in the test with PC-3, in the test with MCF7, with TK-10, with Hs-578T and in the test with KM12 was > 100 µM (inactive) throughout. Also, the GI50 with OVCAR-8 and in the test on DU-145 was > 100 µM (inactive) in each case.

Take `Cc1nc(N)c(N2CCNCC2)c(O)n1`: the GI50 in the test on HT-29, in the test on NCI/ADR-RES, in the test with NCI-H460, with SF-539, in the test on SF-268 and with HOP-92 was > 100 µM (inactive) throughout. Besides, the GI50 in the test on NCI-H226, in the test with PC-3, in the test with K562, in the test with MCF7, with TK-10 and in the test with Hs-578T was > 100 µM (inactive) throughout. Further, the GI50 with KM12, with OVCAR-8, in the test on NCI-H522 and in the test with DU-145 was > 100 µM (inactive) in each case.

Turning to `CSc1c([S+](C)[O-])c2ccccc2n1C` (configuration not stated), the GI50 in the test with HT-29, with NCI/ADR-RES, in the test with SK-MEL-5, in the test on NCI-H460, with SF-539 and in the test on SF-268 was > 100 µM (inactive) throughout. Further, the GI50 in the test on RXF 393, in the test on NCI-H226, in the test on PC-3, with K562, with MCF7 and in the test with TK-10 was > 100 µM (inactive) throughout. Besides, the GI50 in the test on Hs-578T was > 100 µM (inactive); with UACC-62, > 100 µM (inactive); with KM12 it was > 100 µM (inactive); with OVCAR-8 it was > 100 µM (inactive); in the test with NCI-H522, 0.0142 µM (active); with DU-145, > 100 µM (inactive).
